US20220185832A1, “CD73 INHIBITORS” (BioArdis LLC, priority 2019, published 2022)

What follows are molecules tested against T1, Recombinant Human 5′-Nucleotidase (CD73) (Homo sapiens, UniProt P21589) (assay: CD73 Enzyme Assay). Settings: 0.5 nM human CD73, 30 μM AMP, PiColorLock phosphate detection, OD 635 nm; read-out: Potency (IC50).
T1 construct: CHO derived CD73 (Trp27-Lys547), with a C-terminal 6-His tag; 6-His (C); purchased R&D 5795-EN; host or cells: CHO
T1 sequence (P21589 27-547): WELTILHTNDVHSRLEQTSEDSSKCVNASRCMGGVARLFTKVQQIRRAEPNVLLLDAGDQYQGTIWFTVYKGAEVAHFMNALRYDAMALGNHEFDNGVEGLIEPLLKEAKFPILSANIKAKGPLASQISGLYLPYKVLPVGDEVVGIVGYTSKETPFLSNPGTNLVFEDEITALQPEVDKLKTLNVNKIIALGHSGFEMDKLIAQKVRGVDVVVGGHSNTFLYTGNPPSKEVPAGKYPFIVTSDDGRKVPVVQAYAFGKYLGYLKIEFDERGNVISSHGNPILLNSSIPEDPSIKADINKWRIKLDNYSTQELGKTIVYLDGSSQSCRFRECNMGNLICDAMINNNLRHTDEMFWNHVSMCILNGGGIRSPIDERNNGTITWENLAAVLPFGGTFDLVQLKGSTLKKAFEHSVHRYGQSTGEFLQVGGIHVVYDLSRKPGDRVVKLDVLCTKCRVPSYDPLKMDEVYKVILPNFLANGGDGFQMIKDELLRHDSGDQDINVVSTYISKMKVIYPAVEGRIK
Format: biochemical
Text: Soluble recombinant CD73 catalyzes the conversion of adenosine monophosphate (AMP) to adenosine and inorganic phosphate. The phosphate detection reagent, PiColorLock™ (Innova Bioscience, Cat #303-0125) is based on the change in absorbance of the dye malachite green in the presence of inorganic phosphate (Pi) and this property can be exploited to measure any enzyme that generates Pi. Recombinant Human 5′-Nucleotidase (CD73) (R&D #5795-EN, CHO derived CD73 (Trp27-Lys547), with a C-terminal 6-His tag) was used in the enzymatic assay. This assay was run in a 384-well plate format (Corning® NBS™ 384 well plates, Cat #3640). The basic assay procedure involves two steps: 1) Enzyme reaction: The CD73 enzyme (R&D #5795-EN) is incubated in the presence or absence of compounds. AMP (sigma, cat #01930) is added to start the kinase reaction. 2) Detection step: “Gold mix” is added to the assay system, then stabilizers are added. After incubation the absorbance of the solution is read at OD 635 nm. The recorded OD signal is proportional to the enzyme activity.
Briefly, 25 μl human CD73 (0.5 nM final concentration) in the enzymatic buffer solutions (20 mM Tris, 25 mM NaCl, 1 mM MgCl2, pH 7.5, 0.005% Tween-20) were mixed with various concentrations of the test compound (dissolved in 100% DMSO). These solutions were incubated for 15 min at 25° C., and subsequently 25 μl AMP (30 μM final concentration) was added to start the reaction. The final reaction mixture of enzyme-substrate-compound was incubated for 20 min at 37° C. Meanwhile, “Gold mix” was prepared shortly before use by adding 1/100 vol. of accelerator to the PiColorLock™ Gold reagent. 12 μL/well of the “Gold mix” was added to assay plate containing 50 μL enzyme reaction buffer and incubated at 25° C. for 5 min. 5 μL/well stabilizer was added to the assay plate and incubated at 25° C. for 30 min. The absorbance of the well solutions was measured at 635 nm on a Spark 10M instrument (TECAN).
The percent (%) inhibition at each concentration of a compound was calculated relative to the OD value in the Max and Min control wells contained within each assay plate. The Max control wells contained enzyme and substrate as 0% inhibition, and the Min control wells only contained substrate without enzyme as 100% inhibition. The concentrations and percent inhibition values for a test compound are plotted and the concentration of the compound required to achieve 50% inhibition (IC50) was determined with a four-parameter logistic dose response equation.

Row | SMILES | IC50 [nM]
1 | O=P(O)(O)CP(=O)(O)OC[C@H]1O[C@@H](c2cccc3c(NCc4ccccc4)nc(Cl)nc23)[C@H](O)[C@@H]1O [Compound 32, (((((2R,3S,4R,5S)-5-(4-(benzylamino)-2-chloroquinazolin-8-yl)-3,4-dihydroxytetrahydrofuran-2-yl)methoxy)(hydroxy)phosphoryl)methyl)phosphonic acid] | 100 to 999
2 | O=P(O)(O)CP(=O)(O)OC[C@H]1O[C@@H](c2ccc3c(NCc4ccccc4)nc(C4CC4)nc3c2)[C@H](O)[C@@H]1O [Compound 45, (((((2R,3S,4R,5S)-5-(4-(benzylamino)-2-cyclopropylquinazolin-7-yl)-3,4-dihydroxytetrahydrofuran-2-yl)methoxy)(hydroxy)phosphoryl)methyl)phosphonic acid] | 10 to 99
3 | O=P(O)(O)CP(=O)(O)OC[C@H]1O[C@@H](c2ccc3c(NCC4CC(O)C4)nc(Cl)nc3c2)[C@H](O)[C@@H]1O (stereo partly drawn) [Compound 44, (((((2R,3S,4R,5S)-5-(2-chloro-4-(((3-hydroxycyclobutyl)methyl)amino)quinazolin-7-yl)-3,4-dihydroxytetrahydrofuran-2-yl)methoxy)(hydroxy)phosphoryl)methyl)phosphonic acid] | 10 to 99
4 | C[C@@]1(O)[C@H](O)[C@@H](COP(=O)(O)CP(=O)(O)O)O[C@H]1c1ccc2c(NCc3ccccc3)nc(Cl)nc2c1 [Compound 34, (((((2R,3R,4R,5S)-5-(4-(benzylamino)-2-chloroquinazolin-7-yl)-3,4-dihydroxy-4-methyltetrahydrofuran-2-yl)methoxy)(hydroxy)phosphoryl)methyl)phosphonic acid] | > 1000
5 | O=P(O)(O)CP(=O)(O)OC[C@H]1O[C@@H](c2ccc3c(NCc4ccccc4)ncnc3c2)[C@@H](F)[C@@H]1O [Compound 11, [({[(2R,3R,4S,5S)-5-[4-(benzylamino)quinazolin-7-yl]-4-fluoro-3-hydroxyoxolan-2-yl]methoxy}(hydroxy)phosphoryl)methyl]phosphonic acid] | > 1000
6 | O=P(O)(O)CP(=O)(O)OC[C@H]1O[C@@H](c2ccc3c(N4CCC(c5ccccc5)C4)nc(Cl)nc3c2)[C@H](O)[C@@H]1O (stereo partly drawn) [Compound 35, (((((2R,3S,4R,5S)-5-(2-chloro-4-(3-phenylpyrrolidin-1-yl)quinazolin-7-yl)-3,4-dihydroxytetrahydrofuran-2-yl)methoxy)(hydroxy)phosphoryl)methyl)phosphonic acid] | 10 to 99
7 | O=P(O)(O)CP(=O)(O)OC[C@H]1O[C@@H](c2ccc3c(N4CCc5ccccc5C4)nc(Cl)nc3c2)[C@H](O)[C@@H]1O [Compound 36, [({[(2R,3S,4R,5S)-5-[2-chloro-4-(3,4-dihydro-1H-isoquinolin-2-yl)quinazolin-7-yl]-3,4-dihydroxyoxolan-2-yl]methoxy}(hydroxy)phosphoryl)methyl]phosphonic acid] | 10 to 99
8 | N#C[C@@]1(c2ccc3c(NCc4ccccc4)nc(Cl)nc3c2)O[C@H](COP(=O)(O)CP(=O)(O)O)[C@@H](O)[C@H]1O [Compound 16, (((((2R,3S,4R,5R)-5-(4-(benzylamino)-2-chloroquinazolin-7-yl)-5-cyano-3,4-dihydroxytetrahydrofuran-2-yl)methoxy)(hydroxy)phosphoryl)methyl)phosphonic acid] | > 1000
9 | O=P(O)(O)CP(=O)(O)OC[C@H]1O[C@@H](c2ccc3c(N4CCc5ccccc54)nc(Cl)nc3c2)[C@H](O)[C@@H]1O [Compound 30, (((((2R,3S,4R,5S)-5-(2-chloro-4-(indolin-1-yl)quinazolin-7-yl)-3,4-dihydroxytetrahydrofuran-2-yl)methoxy)(hydroxy)phosphoryl)methyl)phosphonic acid] | 100 to 999

The remaining lines, values ahead:

Row | IC50 [nM] | SMILES
10 | 10 to 99 | O=P(O)(O)CP(=O)(O)OC[C@H]1O[C@@H](c2cnc3c(NC4CCCC4)nc(Cl)nc3c2)[C@H](O)[C@@H]1O [Compound 40, (((((2R,3S,4R,5S)-5-(2-chloro-4-(cyclopentylamino)pyrido[3,2-d]pyrimidin-7-yl)-3,4-dihydroxytetrahydrofuran-2-yl)methoxy)(hydroxy)phosphoryl)methyl)phosphonic acid]
11 | 100 to 999 | O=P(O)(O)CP(=O)(O)OC[C@H]1O[C@@H](c2ccc3c(OC4CCCC4)nc(Cl)nc3c2)[C@H](O)[C@@H]1O [Compound 33, (((((2R,3S,4R,5S)-5-(2-chloro-4-(cyclopentyloxy)quinazolin-7-yl)-3,4-dihydroxytetrahydrofuran-2-yl)methoxy)(hydroxy)phosphoryl)methyl)phosphonic acid]
12 | 10 to 99 | O=P(O)(O)CP(=O)(O)OC[C@H]1O[C@@H](c2ccc3c(NC4CCCC4)nc(C4CC4)nc3c2)[C@H](O)[C@@H]1O [Compound 39, (((((2R,3S,4R,5S)-5-(4-(cyclopentylamino)-2-cyclopropylquinazolin-7-yl)-3,4-dihydroxytetrahydrofuran-2-yl)methoxy)(hydroxy)phosphoryl)methyl)phosphonic acid]
13 | 10 to 99 | O=P(O)(O)CP(=O)(O)OC[C@H]1O[C@@H](c2ccc3c(N[C@H]4CCOC4)nc(Cl)nc3c2)[C@H](O)[C@@H]1O [Compound 37, (((((2R,3S,4R,5S)-5-(2-chloro-4-(((S)-tetrahydrofuran-3-yl)amino)quinazolin-7-yl)-3,4-dihydroxytetrahydrofuran-2-yl)methoxy)(hydroxy)phosphoryl)methyl)phosphonic acid]
14 | 10 to 99 | CN(c1nc(Cl)nc2cc([C@@H]3O[C@H](COP(=O)(O)CP(=O)(O)O)[C@@H](O)[C@H]3O)cnc12)C1CCCC1 [Compound 41, (((((2R,3S,4R,5S)-5-(2-chloro-4-(cyclopentyl(methyl)amino)pyrido[3,2-d]pyrimidin-7-yl)-3,4-dihydroxytetrahydrofuran-2-yl)methoxy)(hydroxy)phosphoryl)methyl)phosphonic acid]
15 | 10 to 99 | O=P(O)(O)CP(=O)(O)OC[C@H]1O[C@@H](c2ccc3c(N[C@@H]4CCOC4)nc(Cl)nc3c2)[C@H](O)[C@@H]1O [Compound 38, (((((2R,3S,4R,5S)-5-(2-chloro-4-(((R)-tetrahydrofuran-3-yl)amino)quinazolin-7-yl)-3,4-dihydroxytetrahydrofuran-2-yl)methoxy)(hydroxy)phosphoryl)methyl)phosphonic acid]
16 | < 10 | O=P(O)(O)CP(=O)(O)OC[C@H]1O[C@@H](c2ccc3c(N4CC5CCCC5C4)nc(Cl)nc3c2)[C@H](O)[C@@H]1O (stereo partly drawn) [Compound 24, [({[(2R,3S,4R,5S)-5-(2-chloro-4-{hexahydro-1H-cyclopenta[c]pyrrol-2-yl}quinazolin-7-yl)-3,4-dihydroxyoxolan-2-yl]methoxy}(hydroxy)phosphoryl)methyl]phosphonic acid]
17 | 10 to 99 | O=P(O)(O)CP(=O)(O)OC[C@H]1O[C@@H](c2ccc3c(NCC4CCC(O)CC4)nc(Cl)nc3c2)[C@H](O)[C@@H]1O (stereo partly drawn) [Compound 42, (((((2R,3S,4R,5S)-5-(2-chloro-4-(((4-hydroxycyclohexyl)methyl)amino)quinazolin-7-yl)-3,4-dihydroxytetrahydrofuran-2-yl)methoxy)(hydroxy)phosphoryl)methyl)phosphonic acid]
18 | 100 to 999 | COC1CCC(Nc2nc(Cl)nc3cc([C@@H]4O[C@H](COP(=O)(O)CP(=O)(O)O)[C@@H](O)[C@H]4O)ccc23)CC1 (stereo partly drawn) [Compound 27, [({[(2R,3S,4R,5S)-5-{2-chloro-4-[(4-methoxycyclohexyl)amino]quinazolin-7-yl}-3,4-dihydroxyoxolan-2-yl]methoxy}(hydroxy)phosphoryl)methyl]phosphonic acid]
